Data published in patent publication US6784201B2, “Benzothiepines having activity as inhibitors of ileal bile acid transport and taurocholate uptake” (G.D. Searle & Company, priority 1994, dated 2004).
pIC50: −log10 of the molar value.

These compounds were tested against T1, human IBAT (Homo sapiens, UniProt Q12908) (assay: In vitro assay of IBAT-mediated uptake of [14C]-taurocholate (TC) in H14 cells). Details: read-out: Human TC IC50.
T1 construct: expressed in transfected cells; host or cells: Baby hamster kidney (BHK) cells, clone H14
T1 sequence (Q12908 1-348): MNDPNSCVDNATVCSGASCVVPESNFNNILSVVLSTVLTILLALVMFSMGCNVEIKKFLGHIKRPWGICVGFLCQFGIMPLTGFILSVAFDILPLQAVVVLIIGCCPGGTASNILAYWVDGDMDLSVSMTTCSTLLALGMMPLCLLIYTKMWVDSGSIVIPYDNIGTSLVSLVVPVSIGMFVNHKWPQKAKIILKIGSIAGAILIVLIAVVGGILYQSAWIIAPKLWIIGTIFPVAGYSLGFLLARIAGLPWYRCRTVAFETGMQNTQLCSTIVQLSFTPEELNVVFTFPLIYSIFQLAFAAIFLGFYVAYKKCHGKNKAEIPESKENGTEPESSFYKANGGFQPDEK
Type: cell-based
Method: In Vitro Assay of Compounds that Inhibit IBAT-Mediated Uptake of [^14C]-Taurocholate (TC) in H14 Cells
Baby hamster kidney cells (BHK) transfected with the cDNA of human IBAT (H14 cells) are seeded at 60,000 cells/well in 96 well Top-Count tissue culture plates for assays run within in 24 hours of seeding, 30,000 cells/well for assays run within 48 hours, and 10,000 cells/well for assays run within 72 hours.
On the day of assay, the cell monolayer is gently washed once with 100 μl assay buffer (Dulbecco's Modified Eagle's medium with 4.5 g/L glucose+0.2% (w/v) fatty acid free bovine serum albumin-(FAF)BSA). To each well 50 μl of a two-fold concentrate of test compound in assay buffer is added along with 50 μl of 6 μM [^14C]-taurocholate in assay buffer (final concentration of 3 μM [^14C]-taurocholate). The cell culture plates are incubated 2 hours at 37° C. prior to gently washing each well twice with 100 μl 4° C. Dulbecco's phosphate-buffered saline (PBS) containing 0.2% (w/v) (FAF)BSA. The wells are then gently washed once with 100 μl 4° C. PBS without (FAF)BSA. To each 200 μl of liquid scintillation counting fluid is added, the plates are heat sealed and shaken for 30 minutes at room temperature prior to measuring the amount of radioactivity in each well on a Packard Top-Count instrument.

First: CCCCC1(CC)CS(=O)(=O)c2ccc(SC)cc2C(c2ccc(F)cc2)C1O (stereo not shown) [Example 281]
Second: CCCCC1(CCCC)CS(=O)(=O)c2ccc(N)cc2[C@@H](c2ccc(F)cc2)[C@H]1O [Example 292]
The pIC50 of the first is 0.38 log units higher: 7.72 for the first, 7.34 for the second.

Going from `CCCCC1(CC)CS(=O)(=O)c2ccc(N3CCOCC3)cc2C(c2ccc(F)cc2)C1O` (stereo not shown) [Example 284] to `CCCCC1(CCCC)CS(=O)(=O)c2ccc(N(C)C)cc2C(c2ccc(O)cc2)C1O` (stereo not shown) [Example 1037], the pIC50 rises from 7.10 to 8.66 (1.56 log units).

Going from `CCC1(CC)CS(=O)(=O)c2ccc(N)cc2[C@@H](c2ccccc2)[C@H]1O` [Example 287] to `CCCC1(CCC)CS(=O)(=O)c2ccc(N)cc2[C@@H](c2ccccc2)[C@H]1O` [Example 289], the pIC50 rises from 5.40 to 6.64 (1.24 log units).

Compared with `CCCCC1(CCCC)CS(=O)(=O)c2ccc(N)cc2[C@@H](c2ccccc2)[C@H]1O` [Example 290], `CCCCC1(CCCC)CS(=O)(=O)c2ccc(N(C)C)cc2C(c2ccccc2)C1O` (stereo not shown) [Example 294] is 0.62 log units higher in pIC50: 7.27 for the first, 7.89 for the second.

`CCCC[C@]1(CC)CS(=O)(=O)c2ccc(N)cc2[C@@H](c2ccc(OCCOCCOCCI)cc2)[C@H]1O` [Example 295] and `CCCCC1(CC)CS(=O)(=O)c2ccc(N)cc2C(c2ccc(OCCOCCOCC[N+](C)(C)C)cc2)C1O` (stereo not shown) [Example 296] are within 0.2 log units of each other in pIC50: 5.89 for the first, 5.80 for the second.

Going from `CCCCC1(CCCC)CS(=O)(=O)c2ccc(N(C)C)cc2C(c2cccc(NC(=O)CCCC[N+](CC)(CC)CC)c2)C1O` (stereo not shown) [Example 1005] to `CCCCC1(CCCC)CS(=O)(=O)c2ccc(N(C)C)cc2C(c2cccc(OCCCCC[N+](CC)(CC)CC)c2)C1O` (stereo not shown) [Example 1032], the pIC50 falls from 9.40 to 8.70 (0.70 log units). The first is the more potent here.

First: CCCCC1(CCCC)CS(=O)(=O)c2ccc(N(C)C)cc2C(c2ccc(OCCOCC[N+]3(C)CCN(C)CC3)c(F)c2)C1O (stereo not shown) [Example 1006]
Second: CCCCC1(CCCC)CS(=O)(=O)c2ccc(N(C)C)cc2C(c2ccc(OCCOCCOCC[N+]3(C)CCN(C)CC3)c(F)c2)C1O (stereo not shown) [Example 1033]
The pIC50 of the first is 0.30 log units higher: 9.00 for the first, 8.70 for the second.

Compared with `CCCCC1(CCCC)CS(=O)(=O)c2ccc(N(C)C)cc2C(c2cccc(OCCOCCOCC[N+](CC)(CC)CC)c2)C1O` (stereo not shown) [Example 1007], `CCCCC1(CCCC)CS(=O)(=O)c2ccc(N(C)C)cc2C(c2cccc(OCCOCCOCC[N+](CC)(CC)CCO)c2)C1O` (stereo not shown) [Example 1022] is 0.30 log units lower in pIC50: 9.00 for the first, 8.70 for the second. The first is the more potent here.

First: CCCCC1(CCCC)CS(=O)(=O)c2ccc(N(C)C)cc2C(c2cccc(OCCOCCOCC[n+]3ccccn3)c2)C1O (stereo not shown) [Example 1008]
Second: CCCCC1(CCCC)CS(=O)(=O)c2ccc(N(C)C)cc2C(c2cccc(OCCOCCOCC[n+]3ccnc4ccccc43)c2)C1O (stereo not shown) [Example 1041]
The pIC50 of the first is 0.48 log units higher: 9.00 for the first, 8.52 for the second. The first is the more potent here.

First: CCCCC1(CCCC)CS(=O)(=O)c2ccc(N(C)C)cc2C(c2cccc(OCCOCCOCC[n+]3ccc(N(C)C)cc3)c2)C1O (stereo not shown) [Example 1009]
Second: CCCCC1(CCCC)CS(=O)(=O)c2ccc(N(C)C)cc2C(c2cccc(OCCOCCOCC[n+]3ccc(C(C)C)cc3)c2)C1O (stereo not shown) [Example 1026]
The pIC50 of the first is 0.30 log units higher: 9.00 for the first, 8.70 for the second. The first is the more potent here.

Going from `CCCCC1(CCCC)CS(=O)(=O)c2ccc(N(C)C)cc2C(c2ccc(OC)c(F)c2)C1O` (stereo not shown) [Example 1010] to `CCCCC1(CCCC)CS(=O)(=O)c2ccc(N(C)C)cc2C(c2cccc(N)c2)C1O` (stereo not shown) [Example 1046], the pIC50 falls from 9.00 to 8.52 (0.48 log units). The first is the more potent here.

First: CCCCC1(CCCC)CS(=O)(=O)c2ccc(N(C)C)cc2C(c2ccc(OCCCCC[N+](CC)(CC)CC)c(F)c2)C1O (stereo not shown) [Example 1011]
Second: CCCCC1(CCCC)CS(=O)(=O)c2ccc(N(C)C)cc2C(c2ccc(OCCCCCCCC[N+](CC)(CC)CC)c(F)c2)C1O (stereo not shown) [Example 1045]
The pIC50 of the first is 0.48 log units higher: 9.00 for the first, 8.52 for the second.

`CCCCC1(CCCC)CS(=O)(=O)c2c(OC)cc(N(C)C)cc2C(c2ccc(O)cc2)C1O` (stereo not shown) [Example 1012] and `CCCCC1(CCCC)CS(=O)(=O)c2c(OC)cc(N(C)C)cc2C(c2ccc(OC)cc2)C1O` (stereo not shown) [Example 1014] are within 0.2 log units of each other in pIC50: 8.82 for the first, 8.70 for the second.

`CCCCC1(CCCC)CS(=O)(=O)c2ccc(N(C)C)cc2C(c2ccc(OCCOCCOCC[N+](C)(C)C)c(F)c2)C1O` (stereo not shown) [Example 1013] and `CCCCC1(CCCC)CS(=O)(=O)c2ccc(N(C)C)cc2C(c2ccc(OCCOCC[N+](CC)(CC)CC)c(F)c2)C1O` (stereo not shown) [Example 1044] are within 0.2 log units of each other in pIC50: 8.70 for the first, 8.52 for the second.

`CCCCC1(CCCC)CS(=O)(=O)c2ccc(N(C)C)cc2C(c2ccc(OCCOCC[N+]3(C)CCCC3)c(F)c2)C1O` (stereo not shown) [Example 1015] and `CCCCC1(CCCC)CS(=O)(=O)c2ccc(N(C)C)cc2C(c2ccc(OCCOCC[n+]3ccccc3)c(F)c2)C1O` (stereo not shown) [Example 1049] are within 0.2 log units of each other in pIC50: 8.70 for the first, 8.52 for the second.

`CCCCC1(CCCC)CS(=O)(=O)c2ccc(N(C)C)cc2C(c2cccc(OCCOCCOCC[N+](C)(C)CC(=O)O)c2)C1O` (stereo not shown) [Example 1016] and `CCCCC1(CCCC)CS(=O)(=O)c2ccc(N(C)C)cc2C(c2cccc(OCCOCCOCC[N+](C)(C)CCN(C)C(=O)c3ccccc3)c2)C1O` (stereo not shown) [Example 1018] are the same in pIC50: 8.70 for the first, 8.70 for the second.

`CCCCC1(CCCC)CS(=O)(=O)c2ccc(N(C)C)cc2C(c2cccc(OCCOCCOCC[n+]3ccc(C)c4ccccc43)c2)C1O` (stereo not shown) [Example 1017] and `CCCCC1(CCCC)CS(=O)(=O)c2ccc(N(C)C)cc2C(c2cccc(OCCOCCOCC[n+]3cc4ccccc4cc3C)c2)C1O` (stereo not shown) [Example 1052] are within 0.2 log units of each other in pIC50: 8.70 for the first, 8.52 for the second.

`CCCCC1(CCCC)CS(=O)(=O)c2ccc(N(C)C)cc2C(c2ccc(OCCCCOCCCC[n+]3ccccc3)c(F)c2)C1O` (stereo not shown) [Example 1019] and `CCCCC1(CCCC)CS(=O)(=O)c2ccc(N(C)C)cc2C(c2ccc(OCCCCOCCCC[N+](CC)(CC)CC)c(F)c2)C1O` (stereo not shown) [Example 1031] are the same in pIC50: 8.70 for the first, 8.70 for the second.

`CCCCC1(CCCC)CS(=O)(=O)c2ccc(N(C)C)cc2C(c2ccc(OCc3cccc(C[N+](CC)(CC)CC)n3)c(F)c2)C1O` (stereo not shown) [Example 1020] and `CCCCC1(CCCC)CS(=O)(=O)c2ccc(N(C)C)cc2C(c2ccc(OCc3cccc(C[N+](CC)(CC)CC)c3)c(F)c2)C1O` (stereo not shown) [Example 1025] are the same in pIC50: 8.70 for the first, 8.70 for the second.

`CCCCC1(CCCC)CS(=O)(=O)c2ccc(N(C)C)cc2C(c2cccc(OCCOCCOCC[N+]3(CCO)CCOCC3)c2)C1O` (stereo not shown) [Example 1021] and `CCCCC1(CCCC)CS(=O)(=O)c2ccc(N(C)C)cc2C(c2cccc(OCCOCCOCC[N+]3(C)CCC(C(=O)c4ccccc4)CC3)c2)C1O` (stereo not shown) [Example 1029] are the same in pIC50: 8.70 for the first, 8.70 for the second.

`C=C(C)C(=O)OCC[N+](CC)(CC)CCOCCOCCOc1cccc(C2c3cc(N(C)C)ccc3S(=O)(=O)CC(CCCC)(CCCC)C2O)c1` (stereo not shown) [Example 1023] and `CCCCC1(CCCC)CS(=O)(=O)c2ccc(N(C)C)cc2C(c2ccc(OCCOCCOCC[N+](CC)(CC)CC)cc2)C1O` (stereo not shown) [Example 1048] are within 0.2 log units of each other in pIC50: 8.70 for the first, 8.52 for the second.

`CCCCC1(CCCC)CS(=O)(=O)c2ccc(N(C)C)cc2C(c2cccc(OCCOCCOCC[N+](C)(C)CCN(C)P(C)(=O)c3ccccc3)c2)C1O` (stereo not shown) [Example 1024] and `CCCCC1(CCCC)CS(=O)(=O)c2ccc(N(C)C)cc2C(c2cccc(OCCOCCOCC[N+](C)(C)CCN(CC)P(C)(=O)c3ccccc3)c2)C1O` (stereo not shown) [Example 1035] are the same in pIC50: 8.70 for the first, 8.70 for the second.

`CCCCC1(CCCC)CS(=O)(=O)c2ccc(N(C)C)cc2C(c2cccc(OCCOCCOCC[n+]3ccc(C(C)C)cc3)c2)C1O` (stereo not shown) [Example 1027] and `CCCCC1(CCCC)CS(=O)(=O)c2ccc(N(C)C)cc2C(c2cccc(OCCOCCOCC[n+]3ccc(C(=O)O)cc3)c2)C1O` (stereo not shown) [Example 1028] are the same in pIC50: 8.70 for the first, 8.70 for the second.

`CCCCC1(CCCC)CS(=O)(=O)c2ccc(N(C)C)cc2C(c2cccc(OCCOCCOCC[n+]3cc4ccccn4c3)c2)C1O` (stereo not shown) [Example 1030] and `CCCCC1(CCCC)CS(=O)(=O)c2ccc(N(C)C)cc2C(c2cccc(OCCOCCOCC[n+]3cccc4ccc5ccccc5c43)c2)C1O` (stereo not shown) [Example 1034] are the same in pIC50: 8.70 for the first, 8.70 for the second.

`CCCCC1(CCCC)CS(=O)(=O)c2ccc(N(C)C)cc2C(c2cccc(OCC[N+](C)(C)C)c2)C1O` (stereo not shown) [Example 1038] and `CCCCC1(CCCC)CS(=O)(=O)c2ccc(N(C)C)cc2C(c2ccccc2)C1O` (stereo not shown) [Example 1039] are within 0.2 log units of each other in pIC50: 8.60 for the first, 8.59 for the second.

`CCCCC1(CCCC)CS(=O)(=O)c2ccc(N(C)C)cc2C(c2ccc(OCCCCOCCCC[N+](CC)(CC)CC)c(F)c2)C1O` (stereo not shown) [Example 1040] and `CCCCC1(CCCC)CS(=O)(=O)c2ccc(N(C)C)cc2C(c2ccc(OCCC[n+]3ccc(N(C)C)cc3)c(F)c2)C1O` (stereo not shown) [Example 1053] are the same in pIC50: 8.52 for the first, 8.52 for the second.

`C=CC(=O)Nc1cccc(C2c3cc(N(C)C)ccc3S(=O)(=O)CC(CCCC)(CCCC)C2O)c1` (stereo not shown) [Example 1043] and `CCCCC1(CCCC)CS(=O)(=O)c2ccc(N(C)C)cc2C(c2ccc(OCc3cc[n+](C)cc3)c(F)c2)C1O` (stereo not shown) [Example 1051] are the same in pIC50: 8.52 for the first, 8.52 for the second.

`CCCCC1(CCCC)CS(=O)(=O)c2ccc(N(C)C)cc2C(c2cccc(OCCOCCOCC[N+]3(C)CCN(P(C)(=O)c4ccccc4)CC3)c2)C1O` (stereo not shown) [Example 1050] was tested, and the pIC50 was 8.52.
